Measurements published in ChEMBL document CHEMBL1201862, “PubChem BioAssay data set” (2004).
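Test compounds were applied to cells in 96-well plates for 48 hours at 5 doses. Abbreviation: GI50, concentration required for 50% inhibition of growth.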 Active and inactive are the calls of the source. Cut-off read from the data, not from the text of the source: active = GI50 up to about 1.1 µM and inactive = higher.

Experiments:
Assay in all cases: DTP human tumour cell line panel, 48 h
786-0 = tested on: 786-0
A498 = tested on: A498
CCRF-CEM = tested on: CCRF-CEM
COLO 205 = tested on: COLO 205
HCT-116 = tested on: HCT-116
HL-60 = tested on: HL-60
HOP-62 = tested on: HOP-62
HOP-92 = tested on: HOP-92
LXFL 529 = tested on: LXFL 529
Malme-3M = tested on: Malme-3M
NCI-H522 = tested on: NCI-H522
OVCAR-3 = tested on: OVCAR-3
SF-268 = tested on: SF-268
SK-MEL-28 = tested on: SK-MEL-28
SNB-19 = tested on: SNB-19
SW-620 = tested on: SW-620
TK-10 = tested on: TK-10

Measured: GI50

CCC(C(=O)c1ccccc1)C(CCCC(=O)Nc1c(C)cccc1C)N=O (centres undefined)
inactive: 786-0 > 100 µM | A498 > 100 µM | CCRF-CEM > 100 µM | COLO 205 > 100 µM | HCT-116 > 100 µM | HL-60 > 100 µM | HOP-62 > 100 µM | HOP-92 > 100 µM | LXFL 529 > 100 µM | Malme-3M > 100 µM | NCI-H522 > 100 µM | OVCAR-3 > 100 µM | SF-268 > 100 µM | SK-MEL-28 > 100 µM | SNB-19 > 100 µM | SW-620 > 100 µM | TK-10 > 100 µM

CCOC(=O)/C(=C/c1ccc(C#N)cc1)N(CC)CC
inactive: 786-0 > 100 µM | A498 > 100 µM | CCRF-CEM > 100 µM | COLO 205 > 100 µM | HCT-116 > 100 µM | HL-60 > 100 µM | HOP-62 > 100 µM | HOP-92 > 100 µM | LXFL 529 > 100 µM | Malme-3M > 100 µM | NCI-H522 > 100 µM | SF-268 > 100 µM | SK-MEL-28 > 100 µM | SW-620 > 100 µM | TK-10 > 100 µM

Nc1c([N+](=O)[O-])nc(Cl)c2nncn12
inactive: 786-0 > 87.7 µM | A498 > 100 µM | CCRF-CEM > 46 µM | COLO 205 > 43 µM | HCT-116 > 45 µM | HL-60 > 100 µM | HOP-62 > 100 µM | HOP-92 > 100 µM | LXFL 529 > 78.9 µM | Malme-3M > 100 µM | NCI-H522 > 74.6 µM | OVCAR-3 > 100 µM | SF-268 > 87.9 µM | SK-MEL-28 > 100 µM | SNB-19 > 100 µM | SW-620 > 100 µM | TK-10 > 100 µM

O=C(c1ccc(O)cc1)C1c2c3c(cc(O)c2C(c2ccc(O)cc2)C1c1cc(O)cc(O)c1)OC(c1ccc(O)cc1)C3c1cc2c(cc1O)OC(c1ccc(O)cc1)C2c1cc(O)cc(O)c1 (centres undefined)
inactive: 786-0 > 12.5 µM | A498 > 12.5 µM | CCRF-CEM > 12.5 µM | COLO 205 > 12.5 µM | HCT-116 > 12.5 µM | HL-60 > 12.5 µM | HOP-62 > 12.5 µM | HOP-92 > 12.5 µM | LXFL 529 > 12.5 µM | Malme-3M > 12.5 µM | NCI-H522 > 12.5 µM | OVCAR-3 > 12.5 µM | SF-268 > 12.5 µM | SK-MEL-28 > 12.5 µM | SNB-19 > 12.5 µM | SW-620 > 12.5 µM | TK-10 > 12.5 µM

CC(C)=CCC/C(C)=C/CC/C(C)=C/C1CCC(=O)C1(C)C (centres undefined)
inactive: 786-0 17.9 µM | A498 18.5 µM | CCRF-CEM 17.1 µM | COLO 205 16.2 µM | HCT-116 17 µM | HL-60 11.6 µM | HOP-62 26.5 µM | HOP-92 25.9 µM | LXFL 529 17.3 µM | Malme-3M 18.3 µM | NCI-H522 15.2 µM | OVCAR-3 17.1 µM | SF-268 17.1 µM | SK-MEL-28 22.1 µM | SNB-19 25.1 µM | TK-10 39.4 µM

CC(c1cccc2ccccc12)/[N+]([O-])=C/c1ccccc1 (centres undefined)
inactive: 786-0 > 100 µM | A498 > 100 µM | CCRF-CEM > 100 µM | COLO 205 > 100 µM | HCT-116 > 100 µM | HL-60 99.5 µM | HOP-62 > 100 µM | HOP-92 29.5 µM | LXFL 529 > 100 µM | Malme-3M > 100 µM | NCI-H522 78.7 µM | OVCAR-3 > 100 µM | SF-268 > 100 µM | SK-MEL-28 > 100 µM | SNB-19 > 100 µM | SW-620 > 100 µM | TK-10 > 100 µM
